Assay results from ChEMBL document CHEMBL5046281, “N-Aryl Mercaptopropionamides as Broad-Spectrum Inhibitors of Metallo-β-Lactamases” (J Med Chem, 2022).
Converted amounts (≈) assume the structure as drawn. The source made the active and inactive calls. The rule behind the calls is not given here.

Test system: Serratia marcescens
Assay: Antibacterial activity against NDM-1 producing Serratia marcescens T2352 clinical isolates assessed as inhibition of bacterial growth by microdilution method
Assay type: functional
Details: not given

| Compound | MIC |
| --- | --- |
| C[C@@H](O)[C@H]1C(=O)N2C(C(=O)O)=C(SCCNC=N)C[C@H]12 [IMIPENEM ANHYDROUS] | 256 µg/mL (≈ 855 µM) |

Test system: Klebsiella pneumoniae
Assay: Antibacterial activity against NDM-1 producing Klebsiella pneumoniae T2301 clinical isolates assessed as inhibition of bacterial growth by microdilution method
Assay type: functional
Details: not given

| Compound | MIC |
| --- | --- |
| C[C@@H](O)[C@H]1C(=O)N2C(C(=O)O)=C(SCCNC=N)C[C@H]12 [IMIPENEM ANHYDROUS] | 16 µg/mL (≈ 53.4 µM) |

Biological target: Disintegrin and metalloproteinase domain-containing protein 17 (Homo sapiens) (UniProt P78536)
Assay: Inhibition of human TACE at 100 uM relative to control
Details: not given

Disintegrin and metalloproteinase domain-containing protein 17 (Homo sapiens), sequence (P78536 whole entry, the tested form may be a part): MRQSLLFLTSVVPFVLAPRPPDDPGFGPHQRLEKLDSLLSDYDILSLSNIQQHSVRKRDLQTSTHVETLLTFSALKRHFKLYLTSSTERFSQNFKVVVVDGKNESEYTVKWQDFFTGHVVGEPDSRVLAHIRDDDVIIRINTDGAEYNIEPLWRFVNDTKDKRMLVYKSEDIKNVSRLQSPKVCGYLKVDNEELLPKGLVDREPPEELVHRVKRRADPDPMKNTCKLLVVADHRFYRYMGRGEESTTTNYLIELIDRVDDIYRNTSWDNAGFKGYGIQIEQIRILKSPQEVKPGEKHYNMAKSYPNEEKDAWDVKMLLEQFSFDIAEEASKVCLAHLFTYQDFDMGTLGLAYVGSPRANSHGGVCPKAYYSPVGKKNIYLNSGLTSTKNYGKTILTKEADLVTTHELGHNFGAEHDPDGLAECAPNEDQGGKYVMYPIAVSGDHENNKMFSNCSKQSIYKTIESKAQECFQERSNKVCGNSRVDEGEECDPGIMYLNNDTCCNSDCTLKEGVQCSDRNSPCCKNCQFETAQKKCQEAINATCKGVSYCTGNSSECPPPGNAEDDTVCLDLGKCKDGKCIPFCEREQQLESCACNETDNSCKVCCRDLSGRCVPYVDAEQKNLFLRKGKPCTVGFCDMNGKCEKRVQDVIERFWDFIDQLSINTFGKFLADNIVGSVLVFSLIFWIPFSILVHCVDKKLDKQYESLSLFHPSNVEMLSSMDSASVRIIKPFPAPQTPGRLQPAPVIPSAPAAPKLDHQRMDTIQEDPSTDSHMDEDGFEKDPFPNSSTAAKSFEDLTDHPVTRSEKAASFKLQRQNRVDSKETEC

| Compound | inhibition |
| --- | --- |
| N=C(N)NS(=O)(=O)c1ccc(NC(=O)CCS)cc1 | 32% |

Biological target: Matrix metalloproteinase-14 (Homo sapiens, UniProt P50281)
Assay: Inhibition of human MMP-14 at 100 uM relative to control
Details: not given

| Compound | inhibition |
| --- | --- |
| N=C(N)NS(=O)(=O)c1ccc(NC(=O)CCS)cc1 | < 10% |

Test system: Pseudomonas aeruginosa
Assay: Antibacterial activity against VIM-2 expressing Pseudomonas aeruginosa isolates assessed as inhibition of bacterial growth by microdilution method
Assay type: functional, organism-based
Details: not given

| Compound | Activity |
| --- | --- |
| N=C(N)NS(=O)(=O)c1ccc(NC(=O)CCS)cc1 | inactive |

Test system: Escherichia coli
Assay: Antibacterial activity against IMP-1 expressing Escherichia coli isolates assessed as inhibition of bacterial growth by microdilution method
Assay type: functional, organism-based
Details: not given

| Compound | Activity |
| --- | --- |
| N=C(N)NS(=O)(=O)c1ccc(NC(=O)CCS)cc1 | inactive |

Test system: Pseudomonas aeruginosa
Assay: Antibacterial activity against VIM-1 producing Pseudomonas aeruginosa T2357 clinical isolates assessed as inhibition of bacterial growth by microdilution method
Assay type: functional
Details: not given

| Compound | MIC |
| --- | --- |
| C[C@@H](O)[C@H]1C(=O)N2C(C(=O)O)=C(SCCNC=N)C[C@H]12 [IMIPENEM ANHYDROUS] | 256 µg/mL (≈ 855 µM) |

Test system: Escherichia coli
Assay: Antibacterial activity against NDM-7 producing Escherichia coli T2239 clinical isolates assessed as inhibition of bacterial growth by microdilution method
Assay type: functional
Details: not given

| Compound | MIC |
| --- | --- |
| C[C@@H](O)[C@H]1C(=O)N2C(C(=O)O)=C(SCCNC=N)C[C@H]12 [IMIPENEM ANHYDROUS] | 32 µg/mL (≈ 107 µM) |

Test system: Pseudomonas aeruginosa
Assay: Antibacterial activity against IMP-1 producing Pseudomonas aeruginosa T2325 clinical isolates assessed as inhibition of bacterial growth by microdilution method
Details: not given

| Compound | MIC |
| --- | --- |
| C[C@@H](O)[C@H]1C(=O)N2C(C(=O)O)=C(SCCNC=N)C[C@H]12 [IMIPENEM ANHYDROUS] | 16 µg/mL (≈ 53.4 µM) |

Test system: Enterobacter cloacae
Assay: Antibacterial activity against NDM-1 producing Enterobacter cloacae T2311 clinical isolates assessed as inhibition of bacterial growth by microdilution method
Assay type: functional
Details: not given

| Compound | MIC |
| --- | --- |
| C[C@@H](O)[C@H]1C(=O)N2C(C(=O)O)=C(SCCNC=N)C[C@H]12 [IMIPENEM ANHYDROUS] | 8 µg/mL (≈ 26.7 µM) |

Test system: Klebsiella pneumoniae
Assay: Antibacterial activity against imipenem-resistant NDM-1-producing Klebsiella pneumoniae T2301 infected in Galleria mellonella larvae assessed as survival rate at 0.12 ug injected via proleg measured after 3 days by Kaplan-Meier method
Assay type: functional
Details: dose 0.12 µg; time 3 day

| Compound | Activity |
| --- | --- |
| C[C@@H](O)[C@H]1C(=O)N2C(C(=O)O)=C(SCCNC=N)C[C@H]12 [IMIPENEM ANHYDROUS] | <=25% |

Test system: not listed separately
Assay: Toxicity in zebrafish embryo assessed as maximum tolerated concentration measured up to 120 hrs
Design: species or system Danio rerio
Details: in vivo, read-out: MTC

| Compound | MNTC at 120 h |
| --- | --- |
| N=C(N)NS(=O)(=O)c1ccc(NC(=O)CCS)cc1 | ≥ 150 µM |

Biological target: Stromelysin-1 (Homo sapiens) (UniProt P08254)
Assay: Inhibition of human MMP-3 at 100 uM relative to control
Details: not given

Stromelysin-1 (Homo sapiens), sequence (P08254 100-477 limits assumed): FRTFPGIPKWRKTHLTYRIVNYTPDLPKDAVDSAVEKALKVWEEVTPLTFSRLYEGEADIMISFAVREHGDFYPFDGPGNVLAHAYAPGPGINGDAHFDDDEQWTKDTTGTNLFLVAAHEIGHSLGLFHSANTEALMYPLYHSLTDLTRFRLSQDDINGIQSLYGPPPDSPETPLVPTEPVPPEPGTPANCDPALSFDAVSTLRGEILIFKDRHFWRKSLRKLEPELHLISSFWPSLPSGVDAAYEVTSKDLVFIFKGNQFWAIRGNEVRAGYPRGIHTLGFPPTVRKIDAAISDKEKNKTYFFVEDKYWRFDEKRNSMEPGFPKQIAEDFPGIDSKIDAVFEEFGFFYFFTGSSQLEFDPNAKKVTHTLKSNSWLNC

| Compound | inhibition |
| --- | --- |
| N=C(N)NS(=O)(=O)c1ccc(NC(=O)CCS)cc1 | < 10% |

Biological target: T1, Matrilysin (Homo sapiens) (UniProt P09237)
T1 sequence (whole entry): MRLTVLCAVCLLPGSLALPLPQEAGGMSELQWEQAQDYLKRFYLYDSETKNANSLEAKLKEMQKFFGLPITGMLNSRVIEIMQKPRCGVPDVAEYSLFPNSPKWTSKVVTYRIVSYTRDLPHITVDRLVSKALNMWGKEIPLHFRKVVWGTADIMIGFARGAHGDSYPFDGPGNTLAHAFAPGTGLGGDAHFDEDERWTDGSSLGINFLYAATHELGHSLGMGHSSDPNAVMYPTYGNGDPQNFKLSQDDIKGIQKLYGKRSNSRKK
Assay: Inhibition of human MMP-7 at 100 uM relative to control
Details: not given

| Compound | inhibition |
| --- | --- |
| N=C(N)NS(=O)(=O)c1ccc(NC(=O)CCS)cc1 | < 10% |

Test system: Acinetobacter baumannii
Assay: Antibacterial activity against OXA-23 producing Acinetobacter baumannii T2434 clinical isolates assessed as inhibition of bacterial growth by microdilution method
Assay type: functional
Details: not given

| Compound | MIC |
| --- | --- |
| C[C@@H](O)[C@H]1C(=O)N2C(C(=O)O)=C(SCCNC=N)C[C@H]12 [IMIPENEM ANHYDROUS] | 32 µg/mL (≈ 107 µM) |

Test system: Enterobacter cloacae
Assay: Antibacterial activity against GIM-1 producing Enterobacter cloacae T2218 clinical isolates assessed as inhibition of bacterial growth by microdilution method
Assay type: functional
Details: not given

| Compound | MIC |
| --- | --- |
| C[C@@H](O)[C@H]1C(=O)N2C(C(=O)O)=C(SCCNC=N)C[C@H]12 [IMIPENEM ANHYDROUS] | 2 µg/mL (≈ 6.68 µM) |

Test system: not listed separately
Assay: Inhibition of Escherichia coli NDM-1 using fluorocillin as substrate incubated for 30 mins by fluorescence based assay
Details: not given

| Compound | IC50 |
| --- | --- |
| N=C(N)NS(=O)(=O)c1ccc(NC(=O)CCS)cc1 | 2100 nM |

Biological target: Neutrophil collagenase (Homo sapiens) (UniProt P22894)
Assay: Inhibition of human MMP-8 at 100 uM relative to control
Details: not given

Neutrophil collagenase (Homo sapiens), sequence (P22894 101-467 limits assumed): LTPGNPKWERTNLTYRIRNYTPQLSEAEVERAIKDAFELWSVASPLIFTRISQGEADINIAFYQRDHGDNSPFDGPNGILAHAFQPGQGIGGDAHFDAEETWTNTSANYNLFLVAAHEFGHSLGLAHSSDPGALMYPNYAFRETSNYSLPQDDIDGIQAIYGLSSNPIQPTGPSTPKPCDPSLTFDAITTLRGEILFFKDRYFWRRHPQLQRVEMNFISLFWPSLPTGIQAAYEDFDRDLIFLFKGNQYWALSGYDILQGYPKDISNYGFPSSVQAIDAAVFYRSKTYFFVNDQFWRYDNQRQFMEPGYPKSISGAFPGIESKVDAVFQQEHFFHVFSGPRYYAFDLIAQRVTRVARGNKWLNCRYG

| Compound | inhibition |
| --- | --- |
| N=C(N)NS(=O)(=O)c1ccc(NC(=O)CCS)cc1 | < 10% |

Biological target: 72 kDa type IV collagenase (Homo sapiens, UniProt P08253)
Assay: Inhibition of human MMP-2 at 100 uM relative to control
Details: not given

72 kDa type IV collagenase, sequence (P08253 110-660 limits assumed): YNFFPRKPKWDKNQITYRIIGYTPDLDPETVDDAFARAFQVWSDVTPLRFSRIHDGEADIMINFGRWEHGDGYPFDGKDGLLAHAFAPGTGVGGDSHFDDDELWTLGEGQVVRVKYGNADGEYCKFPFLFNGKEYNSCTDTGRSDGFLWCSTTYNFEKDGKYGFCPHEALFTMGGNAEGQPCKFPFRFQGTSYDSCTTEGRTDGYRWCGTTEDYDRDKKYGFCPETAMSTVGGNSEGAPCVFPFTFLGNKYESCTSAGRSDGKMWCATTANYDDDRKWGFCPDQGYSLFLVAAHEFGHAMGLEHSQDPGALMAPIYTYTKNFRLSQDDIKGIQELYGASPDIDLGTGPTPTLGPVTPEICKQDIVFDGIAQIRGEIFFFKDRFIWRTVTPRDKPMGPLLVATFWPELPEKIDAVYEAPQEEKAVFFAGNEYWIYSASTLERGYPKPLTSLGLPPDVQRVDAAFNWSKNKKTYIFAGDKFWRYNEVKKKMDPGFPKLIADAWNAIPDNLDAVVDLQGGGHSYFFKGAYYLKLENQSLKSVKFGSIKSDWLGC

| Compound | inhibition |
| --- | --- |
| N=C(N)NS(=O)(=O)c1ccc(NC(=O)CCS)cc1 | < 10% |

Test system: HepG2
Assay: Cytotoxicity against human HepG2 cells assessed as reduction in cell viability at 100 uM relative to control
Assay type: toxicity, cell-based
Details: hepg2, 100 µM

| Compound | Activity |
| --- | --- |
| N=C(N)NS(=O)(=O)c1ccc(NC(=O)CCS)cc1 | < 10% |

Test system: not listed separately
Assay: Inhibition of Escherichia coli IMP-7 using fluorocillin as substrate incubated for 30 mins by fluorescence based assay
Details: not given

| Compound | IC50 |
| --- | --- |
| N=C(N)NS(=O)(=O)c1ccc(NC(=O)CCS)cc1 | 3300 nM |

Test system: Enterobacter cloacae
Assay: Antibacterial activity against VIM-1 producing Enterobacter cloacae T2353 clinical isolates assessed as inhibition of bacterial growth by microdilution method
Assay type: functional
Details: not given

| Compound | MIC |
| --- | --- |
| C[C@@H](O)[C@H]1C(=O)N2C(C(=O)O)=C(SCCNC=N)C[C@H]12 [IMIPENEM ANHYDROUS] | 4 µg/mL (≈ 13.4 µM) |

Test system: not listed separately
Assay: Lipophilicity, log D of the compound at pH 7.4 by HPLC-MS analysis
Assay type: physicochemical
Details: buffer

| Compound | logD |
| --- | --- |
| N=C(N)NS(=O)(=O)c1ccc(NC(=O)CCS)cc1 | -0.5 |

Biological target: T2, Interstitial collagenase (Homo sapiens) (UniProt P03956)
T2 sequence (whole entry): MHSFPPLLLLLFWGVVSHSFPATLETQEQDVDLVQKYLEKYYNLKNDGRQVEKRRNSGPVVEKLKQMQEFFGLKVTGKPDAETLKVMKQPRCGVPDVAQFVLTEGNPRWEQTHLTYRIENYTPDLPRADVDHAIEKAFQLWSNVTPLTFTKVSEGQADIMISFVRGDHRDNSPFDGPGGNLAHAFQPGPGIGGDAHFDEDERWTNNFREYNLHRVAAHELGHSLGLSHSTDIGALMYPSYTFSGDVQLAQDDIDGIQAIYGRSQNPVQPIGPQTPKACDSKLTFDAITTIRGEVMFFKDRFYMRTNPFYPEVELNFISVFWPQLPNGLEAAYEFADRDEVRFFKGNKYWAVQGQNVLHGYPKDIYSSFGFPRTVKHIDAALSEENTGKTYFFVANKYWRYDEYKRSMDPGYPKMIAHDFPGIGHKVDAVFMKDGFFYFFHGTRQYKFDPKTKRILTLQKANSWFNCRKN
Assay: Inhibition of human MMP-1 at 100 uM relative to control
Details: not given

| Compound | inhibition |
| --- | --- |
| N=C(N)NS(=O)(=O)c1ccc(NC(=O)CCS)cc1 | < 10% |

Test system: Escherichia coli
Assay: Antibacterial activity against NDM-5 producing Escherichia coli T2351 clinical isolates assessed as inhibition of bacterial growth by microdilution method
Details: not given

| Compound | MIC |
| --- | --- |
| C[C@@H](O)[C@H]1C(=O)N2C(C(=O)O)=C(SCCNC=N)C[C@H]12 [IMIPENEM ANHYDROUS] | 8 µg/mL (≈ 26.7 µM) |

Test system: Escherichia coli
Assay: Antibacterial activity against VIM-1 expressing Escherichia coli isolates assessed as inhibition of bacterial growth by microdilution method
Assay type: functional, organism-based
Details: not given

| Compound | Activity |
| --- | --- |
| N=C(N)NS(=O)(=O)c1ccc(NC(=O)CCS)cc1 | inactive |

Test system: Escherichia coli
Assay: Antibacterial activity against NDM-1 expressing Escherichia coli isolates assessed as inhibition of bacterial growth by microdilution method
Assay type: functional, organism-based
Details: not given

| Compound | Activity |
| --- | --- |
| N=C(N)NS(=O)(=O)c1ccc(NC(=O)CCS)cc1 | inactive |

Test system: A549
Assay: Cytotoxicity against human A549 cells assessed as reduction in cell viability at 100 uM relative to control
Assay type: toxicity, cell-based
Details: a549, 100 µM

| Compound | Activity |
| --- | --- |
| N=C(N)NS(=O)(=O)c1ccc(NC(=O)CCS)cc1 | < 10% |

Test system: Escherichia coli
Assay: Antibacterial activity against KPC-2 producing Escherichia coli T2435 clinical isolates assessed as inhibition of bacterial growth by microdilution method
Assay type: functional
Details: not given

| Compound | MIC |
| --- | --- |
| C[C@@H](O)[C@H]1C(=O)N2C(C(=O)O)=C(SCCNC=N)C[C@H]12 [IMIPENEM ANHYDROUS] | 4 µg/mL (≈ 13.4 µM) |

Test system: HEK293
Assay: Cytotoxicity against human HEK293 cells assessed as reduction in cell viability at 100 uM relative to control
Assay type: toxicity, cell-based
Details: hek293, 100 µM

| Compound | Activity |
| --- | --- |
| N=C(N)NS(=O)(=O)c1ccc(NC(=O)CCS)cc1 | < 10% |

Biological target: BlaVIM-1 (Escherichia coli, UniProt Q8GDC1)
Assay: Inhibition of Escherichia coli VIM-1 using fluorocillin as substrate incubated for 30 mins by fluorescence based assay
Details: not given

| Compound | IC50 |
| --- | --- |
| N=C(N)NS(=O)(=O)c1ccc(NC(=O)CCS)cc1 | 500 nM |
